Assay results published in patent US20240180880A1, “METHODS OF USING EHMT2 INHIBITORS IN TREATING OR PREVENTING BLOOD DISORDERS” (Epizyme, Inc., priority 2017, published 2024).
Read-outs that look alike come from different tables or passages of the source.

System: 284 cell lines
Experiment: cells
Procedure: A screen of 284 cell lines to assess the antiproliferative effect of EHMT2 inhibition was conducted by treating cell lines in 384-well format with a half-log step dilutions of Compound 205 over 10 concentrations with a maximum concentration of 0.1% v/v DMSO. Cells were plated on Day 0 and treated with compound on Day 1. Culture medium was replaced on day 7 and cells redosed. After 10-day incubation, cells were fixed and stained with nuclear dye. Automated fluorescence microscopy was carried out using a Molecular Devices ImageXpress Micro XL high-content imager, and images were collected with a 4× objective. 16-bit TIFF images were acquired and analyzed with MetaXpress 5.1.0.41 software. Cell proliferation was measured by the fluorescence intensity of the incorporated nuclear dye. Cell count IC50 is the test compound concentration at 50% of maximal response of the untreated control.

Measured: IC50

CNc1cc(C)nc(Nc2ccc(OC)c(OCCCN3CCCC3)c2)n1 [Compound 205]
< 0.01 µM: Homo sapiens, SCC-9, read-out: Cell Count IC50, SCC-9, Head and Neck | Homo sapiens, SCC-25, read-out: Cell Count IC50, SCC-25, Head and Neck
> 10 µM: Homo sapiens, NCI-H508, read-out: Cell Count IC50, NCI-H508, Colon | Homo sapiens, NCI-H520, read-out: Cell Count IC50, NCI-H520, Lung, NSCLC | Homo sapiens, NCI-H596, read-out: Cell Count IC50, NCI-H596, Lung, NSCLC | Homo sapiens, OE19, read-out: Cell Count IC50, OE19, Head and Neck | Homo sapiens, OE33, read-out: Cell Count IC50, OE33, Head and Neck | Homo sapiens, OVCAR-3, read-out: Cell Count IC50, OVCAR3, Female GU, Ovary | Homo sapiens, PFSK-1, read-out: Cell Count IC50, PFSK-1, Central Nervous System, Glioma | Homo sapiens, RL95-2, read-out: Cell Count IC50, RL95-2, Female GU, Uterus | Homo sapiens, Raji, read-out: Cell Count IC50, Raji, Hematopoietic, Lymphoma | Homo sapiens, SCC-4, read-out: Cell Count IC50, SCC-4, Head and Neck | Homo sapiens, SHP77, read-out: Cell Count IC50, SHP-77, Lung, SCLC | Homo sapiens, SK-LMS-1, read-out: Cell Count IC50, SK-LMS-1, Soft & Connective Tissue, Sarcoma | Homo sapiens, SK-N-FI, read-out: Cell Count IC50, SK-N-FI, Central Nervous System, Neuroblastoma | Homo sapiens, SK-NEP-1, read-out: Cell Count IC50, SK-NEP-1, Kidney | Homo sapiens, SK-OV-3, read-out: Cell Count IC50, SKOV3, Female GU, Ovary | Homo sapiens, SK-UT-1, read-out: Cell Count IC50, SK-UT-1, Soft & Connective Tissue, Sarcoma | Homo sapiens, SNU1, read-out: Cell Count IC50, SNU-1, Stomach | Homo sapiens, SU.86.86, read-out: Cell Count IC50, SU.86.86, Pancreas | Homo sapiens, SW13, read-out: Cell Count IC50, SW-13, Endocrine, Adrenal gland | Homo sapiens, SW948, read-out: Cell Count IC50, SW948, Colon | Homo sapiens, SW 954, read-out: Cell Count IC50, SW954, Female GU, Vulva | Homo sapiens, SW 962, read-out: Cell Count IC50, SW962, Female GU, Vulva | Homo sapiens, SW982, read-out: Cell Count IC50, SW982, Soft & Connective Tissue, Sarcoma | Homo sapiens, SW1353, read-out: Cell Count IC50, SW1353, Bone, Osteosarcoma | Homo sapiens, T47D, read-out: Cell Count IC50, T47D, Breast | Homo sapiens, T98G, read-out: Cell Count IC50, T98G, Central Nervous System, Glioma | Homo sapiens, YAPC, read-out: Cell Count IC50, YAPC, Pancreas | Homo sapiens, ZR-75-1, read-out: Cell Count IC50, ZR-75-1, Breast | Hs766T, read-out: Cell Count IC50, Hs 766T, Pancreas | KPL-1, read-out: Cell Count IC50, KPL-1, Breast | read-out: Cell Count IC50, 5637, Bladder | read-out: Cell Count IC50, A7, Skin, Melanoma | read-out: Cell Count IC50, EB-3, Hematopoietic, Lymphoma | read-out: Cell Count IC50, H4, Central Nervous System, Glioma | read-out: Cell Count IC50, HLE, Liver | read-out: Cell Count IC50, HT-3, Female GU, Cervix | read-out: Cell Count IC50, Hs 229.T, Lung, NSCLC | read-out: Cell Count IC50, Hs 852.T, Skin, Melanoma | read-out: Cell Count IC50, Hs 888.Sk, Bone, Osteosarcoma | read-out: Cell Count IC50, Hs 934.T, Skin, Melanoma | read-out: Cell Count IC50, IM-9, Hematopoietic, Myeloma | read-out: Cell Count IC50, JAR, Placenta | read-out: Cell Count IC50, KLE, Female GU, Uterus | read-out: Cell Count IC50, MX1, Hematopoietic, Leukemia | read-out: Cell Count IC50, PC-3, Prostate | read-out: Cell Count IC50, T24, Bladder | read-out: Cell Count IC50, VA-ES-BJ, Soft & Connective Tissue, Sarcoma | read-out: Cell Count IC50, Y79, Eve, Eye
0.01 to 0.1 µM: read-out: Cell Count IC50, DB, Hematopoietic, Lymphoma | read-out: Cell Count IC50, Hs 729, Soft & Connective Tissue, Sarcoma
0.1 to 1 µM: Homo sapiens, NCI-H661, read-out: Cell Count IC50, NCI-H661, Lung, NSCLC | Homo sapiens, RPMI-6666, read-out: Cell Count IC50, RPMI 6666, Hematopoietic, Lymphoma | Homo sapiens, SAOS-2, read-out: Cell Count IC50, SaOS2, Bone, Osteosarcoma | Homo sapiens, SU-DHL-4, read-out: Cell Count IC50, SU-DHL-4, Hematopoietic, Lymphoma | Homo sapiens, SW684, read-out: Cell Count IC50, SW684, Soft & Connective Tissue, Sarcoma | Homo sapiens, SW1463, read-out: Cell Count IC50, SW1463, Colon | Homo sapiens, TCC-SUP, read-out: Cell Count IC50, TCCSUP, Bladder | Homo sapiens, U-118-MG, read-out: Cell Count IC50, U-118 MG, Central Nervous System, Glioma | Homo sapiens, WM 266-4, read-out: Cell Count IC50, WM-266-4, Skin, Melanoma | OCUG-1, read-out: Cell Count IC50, OCUG-1, Liver | read-out: Cell Count IC50, BC-1, Hematopoietic, Lymphoma | read-out: Cell Count IC50, HOS, Bone, Osteosarcoma | read-out: Cell Count IC50, MT-3, Colon | read-out: Cell Count IC50, TE 125.T, Soft & Connective Tissue, Sarcoma
1 to 10 µM: Homo sapiens, NCI-H747, read-out: Cell Count IC50, NCI-H747, Colon | Homo sapiens, NTERA-2-cl-D1, read-out: Cell Count IC50, NTERA-2 cl.D1, Testis | Homo sapiens, PANC-1, read-out: Cell Count IC50, PANC-1, Pancreas | Homo sapiens, PSN1, read-out: Cell Count IC50, PSN-1, Pancreas | Homo sapiens, RKOE6, read-out: Cell Count IC50, RKOE6, Colon | Homo sapiens, RPMI-7951, read-out: Cell Count IC50, RPMI-7951, Skin, Melanoma | Homo sapiens, RPMI-8226, read-out: Cell Count IC50, RPMI 8226, Hematopoietic, Myeloma | Homo sapiens, RS4-11, read-out: Cell Count IC50, RS4;11, Hematopoietic, Leukemia | Homo sapiens, Ramos, read-out: Cell Count IC50, Ramos (RA 1), Hematopoietic, Lymphoma | Homo sapiens, SCaBER, read-out: Cell Count IC50, SCaBER, Bladder | Homo sapiens, SJRH30, read-out: Cell Count IC50, SJRH30, Soft & Connective Tissue, Sarcoma | Homo sapiens, SJSA-1, read-out: Cell Count IC50, SJSA1, Bone, Osteosarcoma | Homo sapiens, SK-BR-3, read-out: Cell Count IC50, SK-BR-3, Breast | Homo sapiens, SK-MEL3, read-out: Cell Count IC50, SK-MEL-3, Skin, Melanoma | Homo sapiens, SK-MEL-1, read-out: Cell Count IC50, SK-MEL-1, Skin, Melanoma | Homo sapiens, SK-MEL-28, read-out: Cell Count IC50, SK-MEL-28, Skin, Melanoma | Homo sapiens, SK-MES-1, read-out: Cell Count IC50, SKMES1, Lung, NSCLC | Homo sapiens, SK-N-AS, read-out: Cell Count IC50, SK-N-AS, Central Nervous System, Neuroblastoma | Homo sapiens, SNB-19, read-out: Cell Count IC50, SNB-19, Central Nervous System, Glioma | Homo sapiens, SNU-5, read-out: Cell Count IC50, SNU-5, Stomach | Homo sapiens, SNU-16, read-out: Cell Count IC50, SNU-16, Stomach | Homo sapiens, SNU-423, read-out: Cell Count IC50, SNU-423, Liver | Homo sapiens, SNU-C2B, read-out: Cell Count IC50, SNU-C2B, Colon | Homo sapiens, ST486, read-out: Cell Count IC50, ST486, Hematopoietic, Lymphoma | Homo sapiens, SU-DHL10, read-out: Cell Count IC50, SU-DHL-10, Hematopoietic, Lymphoma | Homo sapiens, SU-DHL-8, read-out: Cell Count IC50, SU-DHL-8, Hematopoietic, Lymphoma | Homo sapiens, SUP-T1, read-out: Cell Count IC50, SUP-T1, Hematopoietic, Lymphoma | Homo sapiens, SW48, read-out: Cell Count IC50, SW48, Colon | Homo sapiens, SW480, read-out: Cell Count IC50, SW480, Colon | Homo sapiens, SW837, read-out: Cell Count IC50, SW837, Colon | Homo sapiens, SW872, read-out: Cell Count IC50, SW872, Soft & Connective Tissue, Sarcoma | Homo sapiens, SW900, read-out: Cell Count IC50, SW900, Lung, SCLC | Homo sapiens, SW1088, read-out: Cell Count IC50, SW1088, Central Nervous System, Glioma | Homo sapiens, SW1417, read-out: Cell Count IC50, SW1417, Colon | Homo sapiens, SW1783, read-out: Cell Count IC50, SW1783, Central Nervous System, Glioma | Homo sapiens, SW-403, read-out: Cell Count IC50, SW403, Colon | Homo sapiens, SW-620, read-out: Cell Count IC50, SW620, Colon | Homo sapiens, SiHa, read-out: Cell Count IC50, SiHa, Female GU, Cervix | Homo sapiens, THP-1, read-out: Cell Count IC50, Thp 1, Hematopoietic, Leukemia | Homo sapiens, U2OS, read-out: Cell Count IC50, U2OS, Bone, Osteosarcoma | Homo sapiens, U138-MG, read-out: Cell Count IC50, U-138MG, Central Nervous System, Glioma | Homo sapiens, U-87 MG, read-out: Cell Count IC50, U-87 MG, Central Nervous System, Glioma | Homo sapiens, UMUC3, read-out: Cell Count IC50, UM-UC-3, Bladder | Homo sapiens, WiDr, read-out: Cell Count IC50, WiDr, Colon | Hs 445, read-out: Cell Count IC50, Hs 445, Hematopoietic, Lymphoma | KHOS-240S, read-out: Cell Count IC50, KHOS-240S, Bone, Osteosarcoma | MS751, read-out: Cell Count IC50, MS751, Female GU, Cervix | OE21, read-out: Cell Count IC50, OE21, Head and Neck | RKOAS451, read-out: Cell Count IC50, RKO-AS45-1, Colon | SKO-007, read-out: Cell Count IC50, SKO-007, Hematopoietic, Myeloma | TE 381.T, read-out: Cell Count IC50, TE 381.T, Soft & Connective Tissue, Sarcoma | read-out: Cell Count IC50, A388, Skin, Head and Neck | read-out: Cell Count IC50, AGS, Stomach | read-out: Cell Count IC50, AUS65, Breast | read-out: Cell Count IC50, C32, Skin, Melanoma | read-out: Cell Count IC50, DK-MG, Central Nervous System, Glioma | read-out: Cell Count IC50, EB2, Hematopoietic, Lymphoma | read-out: Cell Count IC50, EM-2, Hematopoietic, Leukemia | read-out: Cell Count IC50, HLF, Liver | read-out: Cell Count IC50, HT, Hematopoietic, Lymphoma | read-out: Cell Count IC50, Hs 611.T, Hematopoietic, Lymphoma | read-out: Cell Count IC50, Hs 688(A).T, Skin, Melanoma | read-out: Cell Count IC50, Hs 821.T, Soft & Connective Tissue, Sarcoma | read-out: Cell Count IC50, Hs 936.T(C1), Skin, Melanoma | read-out: Cell Count IC50, J82, Bladder | read-out: Cell Count IC50, NAMALWA, Hematopoietic, Lymphoma | read-out: Cell Count IC50, PA-1, Female GU, Ovary | read-out: Cell Count IC50, RD, Soft & Connective Tissue, Sarcoma | read-out: Cell Count IC50, RKO, Colon | read-out: Cell Count IC50, SH-4, Skin, Melanoma | read-out: Cell Count IC50, SK-PN-DW, Soft & Connective Tissue, Sarcoma | read-out: Cell Count IC50, SR, Hematopoietic, Lymphoma | read-out: Cell Count IC50, TF-1, Hematopoietic, Leukemia | read-out: Cell Count IC50, TT, Endocrine, Thyroid | read-out: Cell Count IC50, TUR, Hematopoietic, Lymphoma | read-out: Cell Count IC50, U266B1, Hematopoietic, Myeloma
